The numbers were not newly measured in US20230117397A1, “PIRFENIDONE FOR CORONAVIRUS TREATMENT” (Excalibur Pharmaceuticals, Inc., priority 2020, published 2023), which cites them from elsewhere.

Like-named read-outs stand apart in the source and are kept apart here. A value given as a limit tells only on which side of the number the result lay.

For data set [1] the following is noted: major urinary metabolite of pirfenidone.
Data set [2] concerns TNF-α. As to conditions: pretreatment 5 minutes before LPS.
Another data set has as its system IL-12. As to conditions: pirfenidone pre-treatment before LPS.
Data set [3] deals with IFN-γ. As to conditions: pirfenidone pre-treatment before LPS.
The subject of data set [4] is IL-10. Particulars: pirfenidone pre-treatment; by 3 hours.
A further data set concerns endotoxic shock. Particulars: for survival: pretreatment 15 minutes before LPS.
The subject of data set [5] is TNF-α.
Data set [6] has as its system TNF-α. Particulars: pirfenidone added after cell stimulation with endotoxin.
The test system of data set [7] is IFN-γ. Particulars: pirfenidone added after cell stimulation with endotoxin.
Data set [8] concerns TNF-α. Particulars: once daily 50 mg/kg/day or 100 mg/kg/day; dose dependent.
The subject of data set [9] is IL-10. Particulars: once daily 50 mg/kg/day or 100 mg/kg/day; dose dependent.
In another data set the test system is IL-6. Particulars: once daily 50 mg/kg/day or 100 mg/kg/day; dose dependent.
Data set [10] has as its system silicosis (intratracheal silica slurry).
The conditions of data set [11]: MALDI-FTICR MSI.
Experiment in data set [12]: not given
The source holds these as a separate data set.

For data set [13] the following is noted: oral, healthy adults.
Experiment in data set [14]: not given
This is another data set of the same source.

On to `O=C(O)c1ccc(=O)n(-c2ccccc2)c1` [5-carboxy-pirfenidone], for which the biological activity result in data set [1] was “limited to no biological activity”.

`Cc1ccc(=O)n(-c2ccccc2)c1` [pirfenidone, 5-methyl-1-phenyl-2-(1H)-pyridone]: the TNF-α levels suppressed in the data set on TNF-α [2] was 97%. For the same compound, the IL-12 suppressed with IL-12 is listed as 84%. For the same compound, the IFN-γ inhibited in the data set on IFN-γ [3] was 91%. In the data set with IL-10 [4], the IL-10 expression enhanced entry is “approximately 27 fold”. For the same compound, the survival is given as 50% with endotoxic shock (100 mg/kg, 4/8) and 100% with endotoxic shock (500 mg/kg, 8/8). The protection from death result with endotoxic shock (pretreatment 3 hours before LPS) is “partial protection”; with endotoxic shock (pretreatment 6 hours or more before LPS), “none”. Besides, the figures for the “survived (survivors/animals)” value in the data set on endotoxic shock (single oral dose 1 hour after LPS), in the data set on endotoxic shock (single oral dose 3 hours after LPS) and in the data set on endotoxic shock (single oral dose 5 hours after LPS) were 5/5, 4/5 and 1/5, respectively. Further, in the data set on TNF-α [5] (200 mg/kg immediately after LPS), the TNF-α expression result is given as “inhibited”. Also, in the data set on TNF-α [5] (200 mg/kg, 30 or 60 minutes before or after LPS), the TNF-α expression inhibited result was “not”. In the data set on TNF-α [6], the “levels of secreted TNF-α protein” value was “significantly decrease”. In addition, the “steady state levels of TNF-α RNA” value with TNF-α [6] is recorded as “did not change”. Further, in the data set on IFN-γ [7], the “levels of secreted IFN-γ protein” value is listed as “significantly decrease”. Besides, the “steady state levels of IFN-γ RNA” value in the data set with IFN-γ [7] is listed as “did not change”. Also, the TNF-α result with TNF-α [8] was “significant reduction”. The IL-10 entry in the data set with IL-10 [9] is “significant reduction”. In the data set with IL-6, the IL-6 result is “significant reduction”. Moreover, the “dose response difference in inflammation and fibrosis” value in [10] (between the 50 mg/kg/day and 100 mg/kg/day treatment groups) is reported as “approximately 15%”. Also, the “inflammation and resulting fibrosis” value in [10] (once daily 50 mg/kg/day or 100 mg/kg/day) is “significantly decreased”. In addition, the “time to maximum serum concentration” value (after dosing) was “within an hour”. The terminal half-life entry (in vivo) was “approximately 2 hours” and the terminal half-life entry in [13] is “approximately 2.5 hours”. In data set [11] (kidney tissue), the “T1/2 in kidney tissue” value was 49 min. Further, in [11] (liver tissue), the “T1/2 in liver tissue” value was 46 min. Besides, the “T1/2 in lung tissue” value in data set [11] (lung tissue) is 67 min. Moreover, the half-life result in [12] (following from the clearance) is “less than 2 hours”. Also, the drug clearance result in data set [12] (oral administration) was “approximately 30 ml/min/kg”. Besides, the “time to maximum levels in blood” value in data set [13] (fasting) is 0.5 h; in [13] (post food) it was 2 h. Further, the “most common side effects” value in data set [14] (10% or more greater than placebo) was “nausea, dyspepsia and rash”. In data set [14] (in vivo), the “AST/ALT elevation, incidence” value is on record as < 3%. Further, in [14] (very rarely), the “bilirubin elevation, incidence” value was 0.1%.
